Here are results for one compound from paper PMC6767236, “Selective Cannabinoid 2 Receptor Agonists as Potential Therapeutic Drugs for the Treatment of Endotoxin-Induced Uveitis” (Molecules, 2019).

The conditions of data set [1]: cited from earlier work.
Details of data set [2]: method as in earlier work. As to conditions: mouse, i.v., 0.5-1 mg/kg; * previously published; cited from earlier work.
For data set [3] the following is noted: * previously published; cited from earlier work.
The target in data set [4] is T1, human CB2R (Homo sapiens, UniProt P34972).
T1 construct: bgal (beta-galactosidase fragment of the PathHunter system, named only in the cell line's name); host or cells: CHO-K1 (CHOK1hCB2_bgal)
T1 sequence (P34972 whole entry, the tested form may be a part): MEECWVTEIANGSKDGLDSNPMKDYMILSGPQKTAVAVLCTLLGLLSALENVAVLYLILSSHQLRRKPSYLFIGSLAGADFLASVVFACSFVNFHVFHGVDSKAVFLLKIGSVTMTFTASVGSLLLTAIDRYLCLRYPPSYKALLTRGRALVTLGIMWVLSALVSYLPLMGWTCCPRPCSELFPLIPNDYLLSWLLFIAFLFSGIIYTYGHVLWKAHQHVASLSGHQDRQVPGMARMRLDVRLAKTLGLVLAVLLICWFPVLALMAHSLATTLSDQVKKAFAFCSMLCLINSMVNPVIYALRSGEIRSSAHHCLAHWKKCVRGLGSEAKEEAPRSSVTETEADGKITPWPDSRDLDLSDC
As to conditions: cited from earlier work.

For data set [5] the following is noted: human and mouse liver microsomes; underlying data previously published; cited from earlier work.
Data set [6] has as its target T2, human CB1R (Homo sapiens, UniProt P21554).
T2 construct: host or cells: CHO
Conditions: [3H]-CP55940 displacement; * previously published; read-out: hCB1R: Ki; cited from earlier work.

Data set [7] deals with CYP3A4 (Homo sapiens, UniProt P08684). As to the kind of experiment: Cytochrome P450 inhibition assay, CYP3A4. It is filed as in vitro ADME. Conditions: read-out: IC50 CYP3A4.
Sequence of CYP3A4 (P08684 whole entry): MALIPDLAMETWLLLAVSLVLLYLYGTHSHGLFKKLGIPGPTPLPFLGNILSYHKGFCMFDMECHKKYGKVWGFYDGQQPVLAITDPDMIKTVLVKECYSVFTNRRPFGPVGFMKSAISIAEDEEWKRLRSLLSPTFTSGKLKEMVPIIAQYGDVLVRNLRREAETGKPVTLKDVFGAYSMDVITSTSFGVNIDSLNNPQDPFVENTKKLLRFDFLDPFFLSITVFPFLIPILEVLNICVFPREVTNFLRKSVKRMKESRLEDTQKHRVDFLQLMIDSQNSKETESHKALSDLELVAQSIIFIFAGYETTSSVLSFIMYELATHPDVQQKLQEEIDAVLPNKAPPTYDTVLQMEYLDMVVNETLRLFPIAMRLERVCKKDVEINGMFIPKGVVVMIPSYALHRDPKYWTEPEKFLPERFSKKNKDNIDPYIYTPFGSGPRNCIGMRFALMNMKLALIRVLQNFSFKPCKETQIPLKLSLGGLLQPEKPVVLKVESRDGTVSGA
For data set [8], the system named is leukocyte-endothelial interactions in the iridial microcirculation. As to the kind of experiment: Endotoxin-induced uveitis (EIU), intravital microscopy of iridial microcirculation, WT mice. It counts as in vivo, BALB/c mice. Conditions: WT mice, topical 1.5% w/v (5 µL/animal), 6 h after intravitreal LPS, vs LPS + vehicle. As to the method: EIU was induced in BALB/c mice using an intravitreal injection of LPS (2 μL; 125 ng/μL; E. coli 0111:B4 L084M4118V; Sigma-Aldrich, Oakville, ON, Canada) in saline,. Animals were anesthetized with isoflurane (4% induction, 2% maintenance), and were injected intravitreally through the pars plana with sterile saline (control) or LPS solution using a 30G needle and Hamilton syringe (Hamilton Company, Reno, NV, USA) with the assistance of a WILD M37 dissecting microscope (Leitz Canada, Kitchener, ON, Canada). The puncture wound was glued shut with 3M Vetbond Tissue Adhesive (3M Animal Products, St. Paul, MN, USA), and animals were allowed to recover.
IVM was conducted as previously described in Toguri et al. (2014). The iridial microcirculation was imaged 6 h after induction of EIU. Animals were anesthetized with pentobarbital (i.p., 54 mg/kg). Fifteen minutes before initiating IVM, 0.05% Rhodamine 6G (1.5 mL/kg; Sigma-Aldrich) was injected intravenously (i.v.) to visualize leukocytes within the vasculature, while 5% fluorescein isothiocyanate (FITC) conjugated albumin (i.v., 1 mL/kg; Sigma-Aldrich) was used to visualize blood flow. The iridial microcirculation was observed using an Olympus OV100 Small Animal Imaging System (Olympus, Tokyo, Japan), which contains an MT-20 light source, fluorescence excitation from a xenon lamp (150 W) and an excitation filter for rhodamine-6G (excitation 515–560 nm, emission 590 nm). Images were captured in real-time by a black and white DP70 CCD C-mount camera and digitally recorded using HCImage software (Hamamatsu, Herrsching, Germany).
During IVM animals were placed on a heating pad in a stereotactic frame, and Tear-Gel® (Novartis Pharmaceuticals Canada Inc., Dorval, QC, Canada) was applied to their cornea. The iris was divided into four equal quadrants by drawing two superficial lines on the cornea, lengthwise and widthwise. IVM was carried out in each of these quadrants. Two to four videos of each quadrant were recorded for 30 s each. Videos were analyzed off-line without knowledge of the treatment groups. […] Using ImageJ software (National Institute of Health, Bethesda, MD, USA) the number of adherent leukocytes within each vessel segment was calculated by measuring the diameter and length of vessel segment studied, assuming a cylindrical geometry of blood vessels. Adherent leukocytes were expressed as number of cells per mm^2 of endothelial surface. Rolling leukocytes were classified as cells that moved along the endothelium and crossed a predetermined cross-sectional line of the venule. The number of rolling leukocytes was counted for 30 s and used to calculate the number of rolling leukocytes per min. IVM was conducted 6 h after induction of EIU.
RO6871304, RO6871085, or RO6851228 were applied topically on the left eye (1.5% w/v; 5 μL/animal)) directly after injection of LPS in the same eye. Control animals received vehicle (Tocrisolve) (5 μL/animal) only. HU910 was dissolved for i.v. administration in mixed micelles.

Data set [9] is described as follows: Saturation (thermodynamic) solubility in buffer, FaSSIF, FeSSIF. It counts as physicochemical. Conditions: thermodynamic from solid. The procedure:
Saturation Solubility (= Thermodynamic Solubility)
Approximately 8.6 mg test compound per milliliter solvent/vehicle was stirred in HPLC vials (9 × 12 × 32 mm, Waters) at 350 rpm for 15 h. Samples of 10 µL each were taken and microscopically examined for presence of solid particles. If the active pharmacological ingredient (API) dissolved completely, more solid API was added, and stirring was continued for another 15 h. Addition of solid material was repeated up to 96 h or until residual solid particles could be detected. Samples of 0.5 mL were then transferred to Eppendorf Ultrafree filter tubes (Filter: PVDF 0.22 µm) and centrifuged at 14,500 rpm for 10 min. The filtrates were diluted in ethanol and analyzed for content by UPLC. The measurements were also conducted in 0.05 M aqueous phosphate buffer, fasted (FaSSIF), and fed (FeSSIF) simulated gastrointestinal fluid. […]

The subject of data set [10] is mouse P-gp. Conditions: cited from earlier work.
The target in data set [11] is CYP2D6 (Homo sapiens, UniProt P10635). As to the kind of experiment: Cytochrome P450 inhibition assay, CYP2D6. As to conditions: read-out: IC50 CYP2D6. It is filed as in vitro ADME.
Sequence of CYP2D6 (P10635 whole entry): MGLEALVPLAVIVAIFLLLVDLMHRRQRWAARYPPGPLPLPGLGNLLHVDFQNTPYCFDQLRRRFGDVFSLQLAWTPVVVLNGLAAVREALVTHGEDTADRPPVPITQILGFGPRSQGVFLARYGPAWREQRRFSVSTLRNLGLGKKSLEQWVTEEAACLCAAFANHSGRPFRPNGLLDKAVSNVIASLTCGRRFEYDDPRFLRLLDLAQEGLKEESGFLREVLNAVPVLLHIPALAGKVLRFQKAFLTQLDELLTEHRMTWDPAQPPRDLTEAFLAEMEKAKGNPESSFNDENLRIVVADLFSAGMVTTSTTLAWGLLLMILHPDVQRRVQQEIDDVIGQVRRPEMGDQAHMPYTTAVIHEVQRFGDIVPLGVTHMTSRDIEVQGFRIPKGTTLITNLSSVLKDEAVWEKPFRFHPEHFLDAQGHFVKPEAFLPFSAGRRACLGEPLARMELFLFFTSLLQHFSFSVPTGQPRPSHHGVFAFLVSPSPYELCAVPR
Where [12] appears, read: underlying data previously published.

The structures appear in SMILES notation. In brackets after ≈: the same amount, converted by molar mass. Read-outs that look alike come from different tables or passages of the source.

T2 sequence (P21554 whole entry): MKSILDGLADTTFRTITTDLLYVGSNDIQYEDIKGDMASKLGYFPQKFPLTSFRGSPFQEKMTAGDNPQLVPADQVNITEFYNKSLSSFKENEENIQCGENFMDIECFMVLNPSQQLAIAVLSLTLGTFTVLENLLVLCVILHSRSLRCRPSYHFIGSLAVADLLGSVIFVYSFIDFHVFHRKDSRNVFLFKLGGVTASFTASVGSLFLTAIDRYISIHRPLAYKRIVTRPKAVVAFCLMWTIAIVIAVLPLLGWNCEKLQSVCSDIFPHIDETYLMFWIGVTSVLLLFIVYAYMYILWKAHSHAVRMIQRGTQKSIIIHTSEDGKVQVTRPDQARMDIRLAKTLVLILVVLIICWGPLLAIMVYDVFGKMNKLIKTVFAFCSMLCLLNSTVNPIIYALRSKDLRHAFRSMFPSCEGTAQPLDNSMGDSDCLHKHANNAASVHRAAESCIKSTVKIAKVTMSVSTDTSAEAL

As to `Cc1nc([C@](C)(CC2CC2)NC(=O)c2cc(OCC(F)(F)F)c(C3CC3)cn2)no1` [RO6871085, 5-Cyclopropyl-N-[(2S)-1-cyclopropyl-2-(5-methyl-1,2,4-oxadiazol-3-yl)propan-2-yl]-4-(2,2,2-trifluoroethoxy)pyridine-2-carboxamide], in data set [1] (mouse hepatocytes, * previously published), the “Hepatocyte Clearance mouse” value is reported as 27 μL/min/Mio cells. In addition, in [1] (setting [12]), the “clearance in mouse hepatocytes (class in words)” value was “medium”. In data set [2], the “AUCINF D” value is 1412 ng·kg·h/mL/mg, the “Clearance (CL)” value was 0.708 L/h/kg, the T1/2 is reported as 4.15 h and the Vss is 4.0 L/kg. In data set [3], the “LogD (at pH 7.4)” value was 3.94. Moreover, the EC50 in data set [4] (* previously published, read-out: hCB2R: cAMP EC50) is 0.008 µM. For the same compound, in [4] (functional selectivity, * previously published), the “hCB1R cAMP EC50/hCB2R cAMP EC50” value is listed as 174 *. In data set [4] (relative to 1 µM CP55940, * previously published), the “hCB2R: cAMP efficacy” value is given as 88%. In addition, in data set [4] (setting [12]), the “functional behaviour in hCB2R cAMP assay” value is “full agonists”. Moreover, the “clearance in human as well as mouse microsomes (class in words)” value in data set [5] is recorded as “low to medium clearances”. For the same compound, the inhibition constant Ki in data set [6] was 3.38 µM. Also, in data set [7], the IC50 worked out at 37 µM. Besides, the “adherent leukocytes in the iridial microcirculation” value in data set [8] was “significantly attenuated”. The thermodynamic solubility in data set [9] (FaSSIF pH 6.5, read-out: Thermodynamic Solubility in FaSSIF (pH 6.5)) was found to be 0.037 mg/mL (≈ 87.2 µM). Further, the solubility (thermodynamic) in data set [9] (FeSSIF pH 5.5, read-out: Thermodynamic Solubility in FeSSIF (pH 5.5)) is 0.056 mg/mL (≈ 132 µM). Also, the thermodynamic solubility in [9] (aqueous phosphate buffer pH 6.5, read-out: Thermodynamic Solubility in Aqueous Buffer (pH 6.5)) is 0.003 mg/mL (≈ 7.07 µM). Moreover, the “P-glycoprotein-Mediated Efflux Extraction Ratio mouse” value in data set [10] (mouse P-gp, * previously published) is given as 1.7. Also, the “P-gp substrate, mouse” value in [10] (setting [12]) is reported as “not a P-gp substrate”. In addition, the IC50 in data set [11] was determined as 34 µM.
